Data from patent US20220226299A1 (NIPPON CHEMIPHAR CO., LTD., priority 2019, published 2022).
pIC50: −log10 of the molar value.

These compounds were tested against T1, human Cav3.2 channels (Homo sapiens, UniProt O95180) (assay: T-type calcium blocking action: intracellular calcium (Fluo-4 AM fluorescence) in HEK293 cells steadily expressing human Cav3.2 channels). Settings: HEK293 cells expressing human Cav3.2; KCl-stimulated calcium influx, Fluo-4 fluorescence; Tables 1 to 3.
T1 construct: human Cav3.2 channel ORF (Open Reading Frame) gene; expressed in transfected cells; host or cells: HEK293 cells (ATCC No. CRL-1573), pcDNA3.1(+) plasmid
T1 sequence (O95180 whole entry): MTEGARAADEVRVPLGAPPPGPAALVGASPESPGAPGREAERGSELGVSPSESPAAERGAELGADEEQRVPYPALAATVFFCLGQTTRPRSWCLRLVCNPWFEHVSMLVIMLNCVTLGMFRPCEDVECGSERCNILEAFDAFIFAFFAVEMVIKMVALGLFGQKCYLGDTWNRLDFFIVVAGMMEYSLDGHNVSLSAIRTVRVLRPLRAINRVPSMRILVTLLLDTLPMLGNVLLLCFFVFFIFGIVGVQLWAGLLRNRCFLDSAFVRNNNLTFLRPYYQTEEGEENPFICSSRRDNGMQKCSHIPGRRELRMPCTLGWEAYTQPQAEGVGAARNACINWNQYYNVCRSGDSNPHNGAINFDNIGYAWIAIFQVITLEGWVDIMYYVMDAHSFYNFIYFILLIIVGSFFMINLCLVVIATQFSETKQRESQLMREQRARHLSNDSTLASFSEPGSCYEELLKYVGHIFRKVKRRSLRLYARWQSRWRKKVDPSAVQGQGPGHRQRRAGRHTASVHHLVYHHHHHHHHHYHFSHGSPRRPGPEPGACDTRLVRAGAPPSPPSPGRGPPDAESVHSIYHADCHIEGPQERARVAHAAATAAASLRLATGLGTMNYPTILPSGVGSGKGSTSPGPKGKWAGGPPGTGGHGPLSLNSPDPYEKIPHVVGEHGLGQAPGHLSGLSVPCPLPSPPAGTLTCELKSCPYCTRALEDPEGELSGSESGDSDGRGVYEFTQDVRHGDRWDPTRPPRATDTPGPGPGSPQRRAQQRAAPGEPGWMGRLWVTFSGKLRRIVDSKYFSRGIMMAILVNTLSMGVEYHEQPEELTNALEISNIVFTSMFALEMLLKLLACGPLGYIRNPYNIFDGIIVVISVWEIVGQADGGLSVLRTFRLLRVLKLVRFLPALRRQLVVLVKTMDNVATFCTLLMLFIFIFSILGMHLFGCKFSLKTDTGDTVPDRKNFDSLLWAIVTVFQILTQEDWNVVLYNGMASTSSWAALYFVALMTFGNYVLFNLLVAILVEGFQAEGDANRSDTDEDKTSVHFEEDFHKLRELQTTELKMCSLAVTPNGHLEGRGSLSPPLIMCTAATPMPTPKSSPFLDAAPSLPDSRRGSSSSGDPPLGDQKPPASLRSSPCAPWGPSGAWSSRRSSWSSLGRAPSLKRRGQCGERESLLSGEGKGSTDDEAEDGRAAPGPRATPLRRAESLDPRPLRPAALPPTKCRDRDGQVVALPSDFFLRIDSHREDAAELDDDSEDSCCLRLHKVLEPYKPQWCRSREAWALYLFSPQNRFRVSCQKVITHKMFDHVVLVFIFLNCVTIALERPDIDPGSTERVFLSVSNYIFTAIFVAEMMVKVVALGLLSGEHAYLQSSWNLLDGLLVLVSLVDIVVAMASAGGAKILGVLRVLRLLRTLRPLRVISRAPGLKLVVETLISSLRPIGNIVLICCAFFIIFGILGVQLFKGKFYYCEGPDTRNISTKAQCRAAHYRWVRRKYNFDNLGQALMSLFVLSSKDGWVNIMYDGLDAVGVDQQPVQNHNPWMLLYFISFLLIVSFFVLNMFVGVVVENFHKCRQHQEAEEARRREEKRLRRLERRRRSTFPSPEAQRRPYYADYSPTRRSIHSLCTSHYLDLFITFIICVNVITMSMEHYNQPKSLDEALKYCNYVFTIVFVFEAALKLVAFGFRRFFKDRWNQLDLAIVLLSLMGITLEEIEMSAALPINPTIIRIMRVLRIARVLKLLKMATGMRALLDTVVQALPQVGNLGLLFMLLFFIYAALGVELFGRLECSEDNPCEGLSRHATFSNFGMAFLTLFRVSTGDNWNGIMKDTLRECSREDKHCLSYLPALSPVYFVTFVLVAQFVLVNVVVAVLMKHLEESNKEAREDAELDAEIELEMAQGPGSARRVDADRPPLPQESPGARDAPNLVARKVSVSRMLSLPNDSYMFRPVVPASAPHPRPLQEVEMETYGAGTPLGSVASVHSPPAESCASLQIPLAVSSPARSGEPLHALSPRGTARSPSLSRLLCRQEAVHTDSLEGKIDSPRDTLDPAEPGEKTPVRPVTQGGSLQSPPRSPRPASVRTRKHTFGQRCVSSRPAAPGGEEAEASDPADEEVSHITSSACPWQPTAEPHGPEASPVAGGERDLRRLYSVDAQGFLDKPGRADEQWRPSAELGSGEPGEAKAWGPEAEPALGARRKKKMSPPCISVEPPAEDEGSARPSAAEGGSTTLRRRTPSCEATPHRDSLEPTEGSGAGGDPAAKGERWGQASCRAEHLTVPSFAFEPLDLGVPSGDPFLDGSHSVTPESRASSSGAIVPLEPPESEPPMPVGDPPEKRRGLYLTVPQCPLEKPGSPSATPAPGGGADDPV
Assay type: cell-based
Excerpt: T-Type Calcium Blocking Action
(1) Construction of Cells Steadily Expressing Human Cav3.2 Channels
A sequence obtained by adding HindIII site and a kozak sequence (GCCACC) to the 5′-side of human Cav3.2 channel ORF (Open Reading Frame) gene and adding a KpnI site to the 3′-side of the gene, was incorporated into pcDNA3.1(+) (Thermo Fisher Scientific, #V790-20), and the plasmid was introduced into HEK293 cells (ATCC No. CRL-1573) according to the protocol of FuGENE (registered trademark) HD Transfection Reagent (Promega, #E2311).
(2) Method for Measuring Intracellular Calcium Concentration
The cells steadily expressing human Cav3.2 channels produced by testing method (1) were seeded on a 96-well plate (Dulbecco's modified Eagle medium (DMEM) medium containing 10% fetal bovine serum (FBS) was used as a medium). The cells were seeded and cultured for 48 hours under conditions of 37° C. and 5% CO2. Thereafter, the cells were washed with buffer A in order to remove the medium. Each well was treated with 80 μL of a fluorescent dye solution produced by mixing 22 μg of a fluorescent calcium indicator, Fluo-4 AM (Dojindo Laboratories, #F311), 20 μL of DMSO, 1 μL of 10% Pluronic F-127 (Thermo Fisher Scientific, #P6866), and 4 mL of buffer A. The cells were allowed to stand for 45 minutes at room temperature under light-shielded conditions, and then washed with buffer B in order to completely replace the solution. 70 μL of DMSO having the same concentration as that of a test compound as a negative control and 70 μL of a mixture containing 1 μM of a known blocker RQ-00311651 and the test compound as a positive control were each added to each well in a form of being contained in the buffer B. The test compound was dissolved in 100% DMSO and added at a final concentration of 0.1%. Then, the cells were further allowed to stand at room temperature under light-shielded conditions for 15 minutes and placed in a microplate reader EnVision (PerkinElmer). Background fluorescence was measured in each well, and then a 5 μg/mL grammicidin solution was added to buffer B at 10 μL/well. After 90 seconds, baseline fluorescence was measured. Thereafter, 83.8 mM KCl was added to buffer B at 20 μL/well, and an increase in fluorescence caused by calcium influx generated by the stimulus was measured for 10 seconds. A blocking percentage was calculated from a maximum fluorescence increase value from a baseline, a logarithmic value of a compound concentration and blockery activity were plotted, and thereby an IC50 value was calculated. In the measurement, fluorescence at 510 nm that was emitted when the cells were irradiated with excitation light at 485 nm was observed.
Buffer A: 140 mM NaCl, 5 mM KCl, 1 mM MgCl2, 0.5 mM CaCl2, 10 mM Glucose, 10 mM HEPES, pH 7.3
Buffer B: 137.9 mM Choline-Cl, 4.1 mM KCl, 1 mM MgCl2, 0.5 mM CaCl2, 10 mM Glucose, 10 mM HEPES, pH 7.3
O=C(Cc1nc2ccc(Cl)cc2o1)N[C@@H]1CCN(c2cncc(C(F)(F)F)c2)C1 [Example 97, (R)-2-(6-chlorobenzo[d]oxazol-2-yl)-N-(1-(5-(trifluoromethyl)pyridin-3-yl)pyrrolidin-3-yl)acetamide] gave a pIC50 of 6.60. With O=C(Cc1ccc(C(F)(F)F)cc1)N[C@@H]1CCN(c2cncc(C(F)(F)F)n2)C1 [Example 11, (R)-2-(4-(trifluoromethyl)phenyl)-N-(1-(6-(trifluoromethyl)pyrazin-2-yl)pyrrolidin-3-yl)acetamide] the pIC50 was 6.74. O=C(Cc1ccc(N2CCOCC2)cc1)N[C@@H]1CCN(c2ccc(C(F)(F)F)nc2)C1 [Example 42, (R)-2-(4-morpholinophenyl)-N-(1-(6-(trifluoromethyl)pyridin-3-yl)pyrrolidin-3-yl)acetamide] gave a pIC50 of 6.60. O=C(Cc1ccc2ncccc2c1)N[C@@H]1CCN(c2cncc(C(F)(F)F)c2)C1 [Example 77, (R)-2-(quinolin-6-yl)-N-(1-(5-(trifluoromethyl)pyridin-3-yl)pyrrolidin-3-yl)acetamide] showed a pIC50 of 6.70. CC1(C)CN(c2ccc(CC(=O)N[C@@H]3CCN(c4cncc(C(F)(F)F)c4)C3)cc2)CCO1 [Example 145, (R)-2-(4-(2,2-dimethylmorpholino)phenyl)-N-(1-(5-(trifluoromethyl)pyridin-3-yl)pyrrolidin-3-yl)acetamide] was tested, and the pIC50 was 6.89. Compound O=C(Cc1ccc(C2CC2)cc1)N[C@@H]1CCCN(c2cncc(C(F)(F)F)c2)C1 [Example 129, (R)-2-(4-cyclopropylphenyl)-N-(1-(5-(trifluoromethyl)pyridin-3-yl)piperidin-3-yl)acetamide] has a pIC50 of 6.26. Work on O=C(Cc1ccc2[nH]nnc2c1)N[C@@H]1CCN(c2ccc(C(F)(F)F)nc2)C1 [Example 164, (R)-2-(1H-benzo[d][1,2,3]triazol-5-yl)-N-(1-(6-(trifluoromethyl)pyridin-3-yl)pyrrolidin-3-yl)acetamide] yielded a pIC50 of 5.54. Cc1ncoc1-c1ccc(CC(=O)N[C@@H]2CCN(c3cncc(C(F)(F)F)c3)C2)cc1 [Example 133, (R)-2-(4-(4-methyloxazol-5-yl)phenyl)-N-(1-(5-(trifluoromethyl)pyridin-3-yl)pyrrolidin-3-yl)acetamide] was tested, and the pIC50 was 7.26. CC(C)c1ccc(CC(=O)N[C@@H]2CCN(c3ccc(C(F)(F)F)nc3)C2)cc1 [Example 113, (R)-2-(4-isopropylphenyl)-N-(1-(6-(trifluoromethyl)pyridin-3-yl)pyrrolidin-3-yl)acetamide] was tested, and the pIC50 was 7.00. With O=C(Cc1ccc(-n2cccn2)cc1)N[C@@H]1CCN(c2cncc(C(F)(F)F)c2)C1 [Example 146, (R)-2-(4-(1H-pyrazol-1-yl)phenyl)-N-(1-(5-(trifluoromethyl)pyridin-3-yl)pyrrolidin-3-yl)acetamide] the pIC50 was 7.64. O=C(N[C@@H]1CCN(c2cncc(C(F)(F)F)c2)C1)C(O)c1ccc(Br)cc1 (stereo partly drawn) [Example 25, 2-(4-Bromophenyl)-2-hydroxy-N—((R)-1-(5-(trifluoromethyl)pyridin-3-yl)pyrrolidin-3-yl)acetamide] showed a pIC50 of 5.70. In the case of C[C@@]1(NC(=O)Cc2ccc(N3CCOCC3)cc2)CCN(c2cncc(C(F)(F)F)c2)C1 [Example 147, (R)—N-(3-methyl-1-(5-(trifluoromethyl)pyridin-3-yl)pyrrolidin-3-yl)-2-(4-morpholinophenyl)acetamide], the pIC50 was 6.77. O=C(Cc1ccc(N2C3CCC2COC3)cc1)N[C@@H]1CCN(c2ccc(C(F)(F)F)nc2)C1 [Example 150, 2-(4-(3-Oxa-8-azabicyclo[3.2.1]octan-8-yl)phenyl)-N—((R)-1-(6-(trifluoromethyl)pyridin-3-yl)pyrrolidin-3-yl)acetamide] showed a pIC50 of 6.40. Compound O=C(N[C@@H]1CCN(c2cncc(C(F)(F)F)c2)C1)C1CC1c1ccc(C2CC2)cc1 (single isomer, unassigned) [Example 106B] has a pIC50 of 6.40. [2H]C([2H])(C(=O)N[C@@H]1CCN(c2cncc(C(F)(F)F)c2)C1)c1ccc(C(F)(F)F)cc1 [Example 83, (R)-2-(4-(trifluoromethyl)phenyl)-N-(1-(5-(trifluoromethyl)pyridin-3-yl)pyrrolidin-3-yl)acetamide-2,2-d2] was tested, and the pIC50 was 7.09.
